Patent US20250042880A1 (UNIVERSITY OF KENTUCKY RESEARCH FOUNDATION, priority 2021, published 2025)

Assays:
[1] = system: HCT116 cells; test: Cell proliferation inhibition assay, HCT116; format: cell-based; conditions: for inhibition at 3 µM / inhibition at 10 µM / inhibition at 1 µM: Homo sapiens; for inhibition at 3 µM: HCT-116, 3 μM; for inhibition at 10 µM: HCT-116, 10 μM; for inhibition at 1 µM: HCT-116, 1 μM
Experimental: (§1) Cell proliferation inhibition assay-Cell proliferation inhibition assay was performed as previously reported (48). All compounds to be tested were dissolved at 10 mM in DMSO. The cells were seeded into 12-well plates at a density of 40,000 cells per well in 1 mL of culture medium and were cultured overnight at 37° C. Either 1 μL of the compounds or the vehicle control (DMSO) was added to the cells. After 5 days, the medium was removed, and 200 μL of 0.25% trypsin was added. The cells were resuspended in 800 μL phosphate-buffered saline (PBS) and counted with Vi-CELL XR 2.03 (Beckman Coulter, Inc. USA). The ratio R of the number of viable cells in the compound-treated group to the number of viable cells in the DMSO-treated group was called relative growth rate, and the growth inhibition was calculated as (1−R)*100.
(§2) Cell proliferation inhibition assay was conducted according to a previous report (48). The cells were split into 12-well plates at a density of 40,000 cells per well in 1 mL of culture medium and were cultured overnight at 37° C. Either 1 μL of the compounds dissolved at 10 mmol/L in DMSO or the vehicle control (DMSO) was added to the cells. After 5 days, removed the medium, and 200 μL of 0.25% trypsin was added. The cells were resuspended in phosphate-buffered saline (PBS) and counted with Vi-CELL XR 2.03 (Beckman Coulter, Inc. USA). The ratio R of the number of viable cells in the compound treatment group to the number of viable cells in the DMSO treatment group was defined as the relative growth rate, and the growth inhibition rate was calculated as (1−R)*100.

[2] = system: LS174T cells; test: Cell proliferation inhibition assay, LS174T; format: cell-based; conditions: for combinational effect with BAY-876 on proliferation of LS174T cells: in combination with BAY-876
Experimental: as §1, §2

[3] = system: OCV-8 Cell; test: OCV-8 cell inhibition; format: cell-based; conditions: read-out: OCV-8 Cell Inhibiton; for inhibition at 0.3 µM: 300 nM
[4] = cited from earlier work
[5] = system: Pt2377 cells; test: Cell proliferation inhibition assay, Pt2377; format: cell-based; conditions: 120 h; 5 days, viable cells counted
Experimental: as §1

[6] = system: LS174T xenografts; test: LS174T xenografts in SCID mice; format: in vivo, mouse; conditions: BAY-876 3 mg/kg/day, DBI-1 40 mg/kg/day
Experimental: In vivo evaluation of anti-cancer activity in LS174T xenografts—The mouse studies were conducted with the approval of the University of Kentucky Institutional Animal Care and Use Committee (2020-3531). All methods were carried out in compliance with the relevant guidelines and regulations according to protocols. The LS174T cells in exponential growth phase were trypsinized and resuspended in 50% Matrigel (Corning, Glendale, Arizona). Cells (1.2×10^6) were subcutaneously injected on the lower flanks of severe combined immunodeficient mice. The tumor volumes were calculated based on the formula Length×width^2/2. When tumors reached an average volume of 100 mm^3, the mice were divided into control and treatment groups (3 male and 3 female mice/group, two tumors on each mouse). After tumors were established, BAY-876 was given to the mice by gavage feeding to the BAY-876 group at the dose of 3 mg/kg/day. DBI-1 was daily intraperitoneally (i.p.) administered to the DBI-1 group at dose of 40 mg/kg mouse body weight. Mice in the combination treatment group were administered both oral BAY-876 at the dose of 3 mg/kg/day and i.p. DBI-1 at dose of 40 mg/kg mouse body weight. Tumors and mouse weights were measured every three days and the experiment was stopped at day 12. Tumors were isolated and fixed in 10% neutral buffered formalin. Tumor sections were analyzed with H&E and Ki-67 staining at Markey Cancer Center's Biospecimen Procurement and Translational Pathology Shared Resource Facility (BPTP SRF).

| Structure (SMILES) | inhibition at 3 µM [1] [%] | inhibition at 10 µM [1] [%] | further results |
| --- | --- | --- | --- |
| O=c1c(-c2ccc(Cl)cc2)coc2cc(OCCN3CCN(CCO)CC3)ccc12 [WZY-1-47] | 50 | 94 |  |
| C=C(C)[C@H]1Cc2c(ccc3c2O[C@@H]2COc4cc(OC)c(OC)cc4[C@@H]2C3=O)O1 [Rotenone] |  |  | combinational effect with BAY-876 on proliferation of LS174T cells [2]: synergistical effects with BAY-876 |
| O=c1c(-c2ccc(Br)cc2)coc2cc(OCCCCCCCCn3ccnc3)ccc12 [WZY-1-143] | 61.2 |  |  |
| COc1ccc(-c2coc3cc(OCCN4CCNCC4)ccc3c2=O)cc1 [WZY-1-59] | 0 | 92 |  |
| O=c1c(-c2ccc(Br)cc2)coc2cc(OCCCCCCCCN3CCSCC3)ccc12 [WZY-1-103] | 42.6 |  |  |
| O=c1c(-c2ccccc2F)coc2cc(OCCN3CCN(CCO)CC3)ccc12 [WZY-1-67] | 0 | 0 |  |
| O=c1c(-c2ccc(Br)cc2)coc2cc(OCCCCCCCCN3CCN(CCO)CC3)ccc12 [WZY-1-97] | 99.7 |  | inhibition at 0.3 µM [3]: 39%; inhibition at 1 µM [3]: 96% |
| O=c1c(-c2ccc(Cl)c(Cl)c2)coc2cc(OCCN3CCN(CCO)CC3)ccc12 [XDQ-1-19] | 95 | 94 | inhibition at 0.3 µM [3]: 60%; inhibition at 1 µM [3]: 99% |
| CN(C)C(=N)N=C(N)N [Metformin] |  |  | combinational effect with BAY-876 on proliferation of LS174T cells [2]: synergistical effects with BAY-876 |
| O=c1c(-c2ccc(Cl)c(Cl)c2)coc2cc(OCCN3CCNCC3)ccc12 [XDQ-1-25] | 93 | 92.5 | inhibition at 0.3 µM [3]: 72%; inhibition at 1 µM [3]: 99% |
| O=c1c(-c2ccc(Cl)cc2)coc2cc(OCCN3CCOCC3)ccc12 [WZY-1-149] | 51.4 |  |  |
| O=c1c(-c2ccc(Cl)cc2Cl)coc2cc(OCCN3CCNCC3)ccc12 [WZY-1-123] | 67.1 |  |  |
| O=c1c(-c2ccc(Br)cc2)coc2cc(OCCCCN3CCOCC3)ccc12 [WZY-1-155] |  |  | HCT116 Cells Proliferation Inhibition % ([1]; 3 μM): 65.3% |
| O=c1c(-c2ccc(Br)cc2)coc2cc(OCCN3CCOCC3)ccc12 [WZY-1-77] | 61.4 |  |  |
| COc1ccc(-c2coc3cc(OCCN4CCN(CCO)CC4)ccc3c2=O)cc1 [WZY-1-61] | 0 | 52 |  |
| O=c1c(-c2ccccc2Cl)coc2cc(OCCN3CCN(CCO)CC3)ccc12 [WZY-1-129] | 13 |  |  |
| O=c1c(-c2ccc(Br)cc2)coc2cc(OCCCCn3cccn3)ccc12 [WZY-1-141] | 63.9 |  |  |

| Structure (SMILES) | inhibition at 3 µM [1] [%] | inhibition at 10 µM [1] [%] | further results |
| --- | --- | --- | --- |
| O=c1c(-c2ccc(Br)cc2)coc2cc(OCCCCCCCCN3CCOCC3)ccc12 [WZY-1-101] | 50.6 |  |  |
| Cc1nc(-c2nc(-c3ccc(OC(F)(F)F)cc3)no2)nn1Cc1cccc(N2CCC(S(C)(=O)=O)CC2)c1 [IACS-010759] |  |  | tolerability in preclinical models ([4]; 25 mg/kg/day): not tolerated; antitumor effect in preclinical models ([4]; 5-10 mg/kg/day): tumor regression |
| O=c1c(-c2ccc(F)cc2)coc2cc(OCCN3CCN(CCO)CC3)ccc12 [WZY-1-33] | 0 | 35 |  |
| O=c1c(-c2ccc(Br)cc2)coc2cc(OCCN3CCNCC3)ccc12 [WZY-1-45] | 94 | 93 | inhibition at 0.3 µM [3]: 43%; inhibition at 1 µM [3]: 97% |
| CN(C)CCN(C)CCCCOc1ccc2c(=O)c(-c3ccc(Br)cc3)coc2c1 [DBI-1, 3-(4-Bromophenyl)-7-(4-((2-(dimethylamino)ethyl)(methyl)amino)butoxy)-4H-chromen-4-one] |  |  | IC50 [5]: 1400 nM; inhibition at 0.3 µM [3]: 57%; inhibition at 1 µM [3]: 96%; inhibition at 1 µM [1]: 45%; toxicity based on mice body weight growth rate [6]: No significant toxicity; IC50 ([2]; Homo sapiens, LS174T, 120 h, 5 days, viable cells counted): 1200 nM |
| O=c1c(-c2ccc(F)cc2)coc2cc(OCCN3CCNCC3)ccc12 [WZY-1-31] | 0 | 89 |  |
| O=c1c(-c2ccc(Cl)cc2Cl)coc2cc(OCCN3CCN(CCO)CC3)ccc12 [WZY-1-125] | 43.1 |  |  |
| O=c1c(-c2ccc(Cl)cc2)coc2cc(OCCN3CCNCC3)ccc12 [WZY-1-43] | 92 | 93 | inhibition at 0.3 µM [3]: 31%; inhibition at 1 µM [3]: 97% |
| O=c1c(-c2ccc(Br)cc2)coc2cc(OCCCCN3CCNCC3)ccc12 [WZY-1-91] | 99.9 |  | inhibition at 0.3 µM [3]: 34%; inhibition at 1 µM [3]: 94% |
| O=c1c(-c2ccc(Br)cc2)coc2cc(OCCn3ccnc3)ccc12 [WZY-1-131] | 22 |  |  |
| CN(C)CCN(C)CCOc1ccc2c(=O)c(-c3ccc(Br)cc3)coc2c1 [WZY-1-193] |  |  | inhibition at 0.3 µM [3]: 57%; inhibition at 1 µM [3]: 87%; inhibition at 1 µM [1]: 26% |
| O=c1c(-c2ccc(Br)cc2)coc2cc(OCCN3CCN(CCO)CC3)ccc12 [WZY-1-49] | 80 | 94 |  |
| O=c1c(-c2ccc(Br)cc2)coc2cc(OCCCCn3ccnc3)ccc12 [WZY-1-139] | 58.7 |  |  |
| O=c1c(-c2ccc(Br)cc2)coc2cc(OCCCCN3CCN(CCO)CC3)ccc12 [WZY-1-95] | 99 |  | inhibition at 0.3 µM [3]: 30%; inhibition at 1 µM [3]: 93% |
| O=c1c(-c2ccc(Br)cc2)coc2cc(OCCCCN3CCOCC3)ccc12 [WZY-1-113] | 62.7 |  |  |
| O=c1c(-c2ccc(F)c(F)c2)coc2cc(OCCN3CCNCC3)ccc12 [XDQ-1-9] | 34 | 94 |  |
| O=c1c(-c2ccc(F)c(F)c2)coc2cc(OCCN3CCN(CCO)CC3)ccc12 [XDQ-1-13] | 10 | 61 |  |
